In ChEMBL document CHEMBL5038665, “Identification of the Benzoimidazole Compound as a Selective FLT3 Inhibitor by Cell-Based High-Throughput Screening of a Diversity Library” (J Med Chem, 2022):

Assays:
[1] = Induction of apoptosis in mouse BaF3 cells assessed as survival population at 0.5 uM measured after 48 hrs by Annexin V-FITC/propidium iodide staining based flow cytometry(reference value: 96.35 %); type: toxicity, cell-based; conditions: read-out: Activity
[2] = Induction of apoptosis in mouse BaF3 cells assessed as survival population at 0.1 uM measured after 48 hrs by Annexin V-FITC/propidium iodide staining based flow cytometry(reference value: 96.35 %); type: toxicity, cell-based; conditions: read-out: Activity
[3] = Clearance in 12 hrs fasted Sprague-Dawley rat at 2 mg/kg, iv measured upto 24 hrs by LC-MS analysis; type: ADME, organism-based; conditions: in vivo
[4] = AUC (0-t) in 12 hrs fasted Sprague-Dawley rat at 2 mg/kg, iv measured upto 24 hrs by LC-MS analysis; type: ADME, organism-based; design: route intravenous, dose 2 mg/kg, time <=24; conditions: in vivo
[5] = Half life in 12 hrs fasted Sprague-Dawley rat at 15 mg/kg, po measured upto 24 hrs by LC-MS analysis; type: ADME, organism-based; conditions: in vivo
[6] = Antiproliferative activity against human ML-1 cells expressing wild type FLT3 assessed as reduction in cell viability measured after 72 hrs by MTS assay; type: functional, cell-based; conditions: ML1, 72 h
[7] = tested on: MV4-11; test: Antiproliferative activity against human MV4-11 cells harboring FLT3-ITD mutant assessed as reduction in cell viability measured after 72 hrs ny MTS assay; type: functional, cell-based; conditions: MV4-11, 72 h
[8] = molecular target: Fibroblast growth factor receptor 1 (Homo sapiens, UniProt P11362); test: Inhibition of FGFR1 (unknown origin)
Chain of Fibroblast growth factor receptor 1 (P11362 whole entry): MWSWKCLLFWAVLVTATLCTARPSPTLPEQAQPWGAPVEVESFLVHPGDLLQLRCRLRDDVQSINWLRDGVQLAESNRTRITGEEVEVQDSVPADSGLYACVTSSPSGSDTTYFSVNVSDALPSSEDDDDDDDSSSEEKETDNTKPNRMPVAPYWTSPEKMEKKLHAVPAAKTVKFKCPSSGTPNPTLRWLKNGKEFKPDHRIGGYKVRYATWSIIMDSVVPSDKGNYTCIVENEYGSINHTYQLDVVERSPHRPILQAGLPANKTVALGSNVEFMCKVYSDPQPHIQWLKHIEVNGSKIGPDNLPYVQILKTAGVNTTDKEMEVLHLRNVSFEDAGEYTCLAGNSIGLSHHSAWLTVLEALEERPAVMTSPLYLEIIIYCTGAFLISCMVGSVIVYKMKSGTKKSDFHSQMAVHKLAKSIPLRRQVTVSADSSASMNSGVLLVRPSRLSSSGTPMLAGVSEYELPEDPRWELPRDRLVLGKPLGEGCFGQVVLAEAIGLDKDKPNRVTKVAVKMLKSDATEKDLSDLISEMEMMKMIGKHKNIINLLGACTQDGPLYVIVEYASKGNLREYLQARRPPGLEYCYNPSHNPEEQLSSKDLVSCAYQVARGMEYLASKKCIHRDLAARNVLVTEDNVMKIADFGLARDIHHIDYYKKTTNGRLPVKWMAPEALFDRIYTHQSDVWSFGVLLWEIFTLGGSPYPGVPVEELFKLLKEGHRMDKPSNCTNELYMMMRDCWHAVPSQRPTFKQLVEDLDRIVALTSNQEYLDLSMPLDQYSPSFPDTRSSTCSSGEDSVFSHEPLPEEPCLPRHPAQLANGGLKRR

[9] = molecular target: T1, Receptor-type tyrosine-protein kinase FLT3 (Homo sapiens, UniProt P36888); test: Inhibition of FLT3 (unknown origin)
T1 sequence (P36888 whole entry): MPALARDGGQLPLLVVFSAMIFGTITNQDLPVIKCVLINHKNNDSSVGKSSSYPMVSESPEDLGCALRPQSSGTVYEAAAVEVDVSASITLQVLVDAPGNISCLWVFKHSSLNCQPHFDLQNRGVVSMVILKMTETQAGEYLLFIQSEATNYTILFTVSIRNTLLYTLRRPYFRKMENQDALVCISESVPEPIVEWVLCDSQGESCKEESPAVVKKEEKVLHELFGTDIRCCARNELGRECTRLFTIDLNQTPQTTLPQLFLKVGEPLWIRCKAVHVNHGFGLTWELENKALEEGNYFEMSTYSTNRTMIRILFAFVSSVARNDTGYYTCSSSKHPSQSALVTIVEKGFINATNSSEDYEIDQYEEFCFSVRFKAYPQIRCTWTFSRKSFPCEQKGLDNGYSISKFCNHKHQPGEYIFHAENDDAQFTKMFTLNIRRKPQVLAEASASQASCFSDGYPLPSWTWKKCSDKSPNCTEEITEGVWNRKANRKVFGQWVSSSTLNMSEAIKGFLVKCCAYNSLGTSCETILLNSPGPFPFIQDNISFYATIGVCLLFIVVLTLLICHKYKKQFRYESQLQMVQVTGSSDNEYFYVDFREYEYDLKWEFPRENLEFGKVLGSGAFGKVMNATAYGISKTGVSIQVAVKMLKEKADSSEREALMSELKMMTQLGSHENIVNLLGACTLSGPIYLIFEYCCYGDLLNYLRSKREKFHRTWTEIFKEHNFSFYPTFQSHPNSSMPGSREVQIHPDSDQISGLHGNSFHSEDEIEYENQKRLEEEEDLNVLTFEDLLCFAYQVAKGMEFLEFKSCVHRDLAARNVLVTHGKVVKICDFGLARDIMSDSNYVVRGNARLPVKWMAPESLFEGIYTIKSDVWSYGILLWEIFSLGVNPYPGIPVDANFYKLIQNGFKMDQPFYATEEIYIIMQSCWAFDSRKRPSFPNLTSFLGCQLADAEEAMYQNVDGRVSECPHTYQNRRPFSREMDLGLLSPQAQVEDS

[10] = molecular target: Receptor-type tyrosine-protein kinase FLT3 (Homo sapiens, UniProt P36888, ITD); test: Inhibition of FLT3-ITD mutant (unknown origin)
[11] = Induction of apoptosis in mouse Ba/F3 FLT3-ITD cells assessed as survival population at 0.5 uM measured after 48 hrs by Annexin V-FITC/propidium iodide staining based flow cytometry(reference value: 93.99 %); type: functional
[12] = Induction of apoptosis in mouse Ba/F3 FLT3-ITD cells assessed as survival population at 1 uM measured after 48 hrs by Annexin V-FITC/propidium iodide staining based flow cytometry(reference value: 93.99 %); type: functional
[13] = tested on: MOLM-13; test: Induction of apoptosis in human MOLM-13 cells assessed as survival population at 0.5 uM measured after 48 hrs by Annexin V-FITC/propidium iodide staining based flow cytometry(reference value: 97.35 %); type: functional
[14] = tested on: MV4-11; test: Induction of apoptosis in human MV4-11 cells assessed as survival population at 0.5 uM measured after 48 hrs by Annexin V-FITC/propidium iodide staining based flow cytometry(reference value: 98.01 %); type: functional
[15] = tested on: MV4-11; test: Induction of apoptosis in human MV4-11 cells assessed as survival population at 1 uM measured after 48 hrs by Annexin V-FITC/propidium iodide staining based flow cytometry(reference value: 98.01 %); type: functional
[16] = Toxicity in Balb/c mouse implanted with mouse Ba/F3 FLT3-ITD cells assessed as body weight loss at 30 to 100 mg/kg, po administered for 14 days; type: organism-based, BaF3; conditions: in vivo, 336 h, time 14 day
[17] = Antitumor activity against mouse Ba/F3 FLT3-ITD cells implanted in Balb/c mouse assessed as increase in survival time at 120 mg/kg, po administered every 24 hrs (Rvb=14 days); type: functional

Work on COc1cc(CNc2ccc3c(c2)ncn3-c2ccccc2)ccc1OCCO yielded a viability at 48 h, 0.5 µM [1] of 96.7%, a viability at 48 h, 0.1 µM [2] of 98.3% and a clearance [3] of 43.2 mL/min/kg. The AUC(0-t) at 24 h [4] was 800 ng·h/mL, the half-life [5] was 257 min and the IC50 [6] was greater than 50 µM. For the same compound, the IC50 [7] was 165 nM, the IC50 [8] was greater than 1000 nM and the IC50 [9] was 85 nM. The IC50 [10] was 70 nM, the Activity [11] was 47.99% and the Activity [12] was 43.13%. It also gave an Activity [13] of 68.85%, an Activity [14] of 78.6% and an Activity [15] of 68.54%. For the same compound, the Activity [16] was “Non-Toxic” and the Time [17] was 25 days.
